# Publication PMC11726150, “Pre‐ADMET studies of 5‐(3′,4′‐dihydroxyphenyl)‐γ‐valerolactone, the bioactive intestinal metabolite of proanthocyanidins” (Archiv Der Pharmazie, 2024)
# Several values for one entry are separate records, joined by “and”; a condition that tells them apart may be missing. Identical values can stand only once. Counter-ions that a name gives are not always drawn.
# What was measured:
# P‐gp [1] = target: T1, P‐gp (Homo sapiens, UniProt P08183); assay: Rhodamine‐123 uptake assay, inhibition, differentiated Caco2 cells; assay type: cell-based; conditions: VL initial concentration 50 and 25 µM, 90 min
# T1 construct: P‐gp modulation was determined in differentiated Caco2 cells by Rh‐123 uptake assay; endogenous in cells; host or cells: differentiated Caco2 cells (21 days)
# T1 sequence (P08183 whole entry): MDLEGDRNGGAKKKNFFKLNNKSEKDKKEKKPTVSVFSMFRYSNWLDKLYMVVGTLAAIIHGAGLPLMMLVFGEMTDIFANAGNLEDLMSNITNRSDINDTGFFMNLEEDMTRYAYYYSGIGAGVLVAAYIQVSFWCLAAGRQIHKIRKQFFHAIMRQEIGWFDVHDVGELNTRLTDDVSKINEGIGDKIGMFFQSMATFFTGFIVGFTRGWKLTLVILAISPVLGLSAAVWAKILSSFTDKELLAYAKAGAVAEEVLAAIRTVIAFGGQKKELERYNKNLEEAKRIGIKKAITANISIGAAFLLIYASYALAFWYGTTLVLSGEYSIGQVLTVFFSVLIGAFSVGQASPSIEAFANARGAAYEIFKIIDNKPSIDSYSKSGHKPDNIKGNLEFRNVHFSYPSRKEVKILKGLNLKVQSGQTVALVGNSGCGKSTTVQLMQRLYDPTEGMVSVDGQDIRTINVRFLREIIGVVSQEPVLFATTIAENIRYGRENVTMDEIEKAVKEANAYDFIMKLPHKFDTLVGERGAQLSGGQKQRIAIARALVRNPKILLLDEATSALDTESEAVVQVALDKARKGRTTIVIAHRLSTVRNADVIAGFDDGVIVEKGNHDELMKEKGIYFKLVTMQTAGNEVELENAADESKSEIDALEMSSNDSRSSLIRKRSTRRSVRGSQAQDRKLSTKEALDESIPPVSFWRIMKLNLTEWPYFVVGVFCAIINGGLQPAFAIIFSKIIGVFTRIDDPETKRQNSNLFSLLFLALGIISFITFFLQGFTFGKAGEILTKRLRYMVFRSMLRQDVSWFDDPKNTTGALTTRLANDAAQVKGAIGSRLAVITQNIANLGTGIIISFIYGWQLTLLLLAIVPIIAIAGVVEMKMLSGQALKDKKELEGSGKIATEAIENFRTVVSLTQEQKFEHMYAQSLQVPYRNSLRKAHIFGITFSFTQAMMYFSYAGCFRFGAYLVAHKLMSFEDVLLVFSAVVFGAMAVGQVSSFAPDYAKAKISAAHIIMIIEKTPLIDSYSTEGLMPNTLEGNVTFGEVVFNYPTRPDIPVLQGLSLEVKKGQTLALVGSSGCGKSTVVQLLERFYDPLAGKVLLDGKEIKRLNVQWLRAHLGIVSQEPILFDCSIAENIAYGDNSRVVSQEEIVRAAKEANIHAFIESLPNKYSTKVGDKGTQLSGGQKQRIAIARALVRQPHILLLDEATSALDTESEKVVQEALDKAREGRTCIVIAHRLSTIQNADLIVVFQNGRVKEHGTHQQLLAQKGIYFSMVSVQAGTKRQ
# Procedure: To evaluate P‐gp inhibition on day 21, the medium was removed and 200 μL Hank's salt solution was added, the plate was then incubated for 40 min. […] After treatment cells were washed three times with ice‐cold PBS, and 200 μL of lysis buffer (0.1% Triton X 100 and 0.2 N NaOH) was added. The plate was kept on a shaker for 2 h at room temperature, and 100 μL of lysate was used to measure the Rh‐123 fluorescence at 485/529 nm. Further, 10 μL of lysate was taken in a separate 96‐well plate, and 190 μL Bradford reagent was added. The plate was shaken for 5–10 min, and absorbance was measured at 595 nm. Each sample was normalized by dividing the fluorescence of each sample by the total proteins present in the lysate.^[ [46] ^]
# Wt‐MDCK monolayers = assay: In vitro transport study across 5‐day Wt‐MDCK monolayers; assay type: in vitro ADME, canine; conditions: Wt‐MDCK model, VL 50 μM dosed (VLS formed as metabolite), controls 10 μM, N = 4
# Procedure: (§1) Caco2 cells between passage numbers 42–50 and MDCK cells between passage numbers 21–26 were used for transport studies; the assay was conducted as reported by Volpe^[ [33] ^] with slight modifications. Transport experiments were performed in 12‐well Transwell plates. Caco2 cells were seeded at a density of 60,000 cells/cm^2 and grown for 21 days, with change of media every 3 days, while MDCK cells were seeded at a density of 70,000 cells/cm^2 and grown for 5 days, changing the medium daily. The physiological and morphological formation of a confluent monolayer was evaluated by measuring the TEER value: Caco2 monolayers became confluent 1 week after seeding with TEER values greater than 450 Ω/cm^2, while MDCK monolayers became confluent 24 h after seeding with TEER values greater than 90 Ω/cm^2. Phenol red and serum‐free DMEM/F12 medium was used as transport buffer. For bidirectional transport, VL (50 μM) and control compound (propranolol and paclitaxel, 10 μM) were added to the apical side to determine apical to basolateral transport (A–B; absorptive direction) and to the basal side to determine basolateral to apical transport (B–A; secretory direction). The volume of the apical and basolateral chambers was 0.5 and 1.5 mL, respectively. Aliquots of 120 μL were taken from the basolateral (for A–B transport) or the apical (for B–A transport) chamber at 30, 60, 90, and 120 min. An equal volume was replaced with a transport buffer at every time point. At the beginning and at the end of the experiment, an aliquot was also taken from the apical or basolateral chamber for analysis of the drug. To determine the integrity of monolayers, TEER values were measured before and after the experiment. In addition, at the end of the experiment cells were collected and lysed to evaluate the compound intake. Briefly, cells were washed twice with cold PBS and 200 µL of cold MeOH was added to detach and lysate the cells; subsequently, cells were collected into lo‐bind Eppendorf and sonicated in ice for 10 min, then centrifuged for 15 min at 4°C at 14,000 rpm (Eppendorf Centrifuge 5430 R). The supernatant was collected and used for further analysis.
# (§2) The apparent permeability P app (cm/s) of compounds was calculated from the following equation (Equation 1), while P app (cm/s) of the metabolites was calculated from the equation (Equation 2): (1) Papp=dQ/dt×1/C×1/A.
# (§3) Equation (1) for calculating P app (cm/s) of tested reference compounds. (2) Papp=Metabolic cleareance/A.
# (§4) Equation (2) for calculating P app (cm/s) of compound metabolites.
# (§5) with Metabolic cleareance=Rate of metabolism/C and where dQ/dt is the rate of transport, C is the initial concentration in the donor compartment, and A is the surface area of the filter. To quantify the rate of transport, cumulative amounts of test compounds were plotted against time (min).
# (§6) Efflux ratio was calculated using the following equation (Equation 3)^[ [48] ^]: (3) Efflux ratio=Papp(B−A)/Papp(A−B).
# [2] = as above; assay type: in vitro ADME, canine; conditions: dog; Wt‐MDCK model; Papp(B−A)/Papp(A−B); N = 4; read-out: Efflux ratio (mean ± SD)
# Procedure: as §1, §2, §3, §4, §5, §6
# BCRP = target: T2, BCRP (Homo sapiens, UniProt Q9UNQ0); assay: Rhodamine‐123 uptake assay, cotreatment with elacridar, differentiated Caco2 cells; assay type: cell-based; conditions: at higher doses
# T2 construct: performing the Rh‐123 uptake‐based efflux assay in the differentiated Caco2 cell line; endogenous in cells; host or cells: differentiated Caco2 cells (21 days)
# T2 sequence (Q9UNQ0 1-655): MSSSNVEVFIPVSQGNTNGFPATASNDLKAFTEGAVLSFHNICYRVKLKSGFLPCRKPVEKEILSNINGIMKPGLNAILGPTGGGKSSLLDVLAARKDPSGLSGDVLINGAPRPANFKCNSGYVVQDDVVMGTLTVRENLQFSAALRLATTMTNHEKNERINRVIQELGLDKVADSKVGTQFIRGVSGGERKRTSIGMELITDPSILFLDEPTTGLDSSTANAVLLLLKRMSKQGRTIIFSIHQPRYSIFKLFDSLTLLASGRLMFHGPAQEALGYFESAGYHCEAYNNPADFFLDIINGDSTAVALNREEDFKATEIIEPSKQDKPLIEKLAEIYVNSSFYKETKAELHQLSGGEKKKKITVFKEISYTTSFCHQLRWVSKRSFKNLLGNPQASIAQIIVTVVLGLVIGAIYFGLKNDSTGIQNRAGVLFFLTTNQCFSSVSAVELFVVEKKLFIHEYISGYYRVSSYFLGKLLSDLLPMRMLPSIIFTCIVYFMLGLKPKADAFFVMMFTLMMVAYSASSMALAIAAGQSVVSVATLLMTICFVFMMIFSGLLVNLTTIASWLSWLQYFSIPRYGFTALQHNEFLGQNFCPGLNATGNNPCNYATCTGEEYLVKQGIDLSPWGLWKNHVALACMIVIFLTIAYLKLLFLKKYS
# Caco2 monolayers = assay: In vitro transport study across 21‐day Caco2 monolayers; assay type: in vitro ADME, human; conditions: Caco2 model, VL 50 μM dosed (VLS formed as metabolite), controls 10 μM, N = 4
# Procedure: as §1, §2, §3, §4, §5, §6
# [3] = as above; assay type: in vitro ADME, human; conditions: human, Caco-2, Caco2 model, N = 4
# Procedure: as §1, §2, §3, §4, §5, §6
# P‐gp [4] = assay: Rhodamine‐123 uptake assay, induction (48 h), differentiated Caco2 cells; assay type: cell-based, human; conditions: 2.5 to 10 µM, 48 h treatment
# Procedure: P‐gp modulation was determined in differentiated Caco2 cells by Rh‐123 uptake assay.^[ [49] ^] In brief, cells in the logarithmic growth phase with 70%–80% confluency were harvested and seeded at a density of 2 × 10^4/well of a 96‐well plate. Cells were allowed to grow for 21 days in a CO2 incubator changing the medium every other day.
# After treatment, cells were washed with Hank's buffer and 200 μL of phenol, and serum‐free DMEM/F12 medium containing […] of Rh‐123 was added and cells were incubated for 90 min. The final steps were as described previously.
smiles,measurement,setting,value
"O=C1CCC(Cc2ccc(O)c(OS(=O)(=O)O)c2)O1 (centres unmarked) [VLS, valerolactone sulfate]",Rh‐123 uptake in cotreatment with CsA 20 µM,P‐gp [1],nonsignificant results
same,P app A–B (mean ± SD),Wt‐MDCK monolayers; absorptive direction,17.33 ×10⁻⁶ cm/s and 173.3 ± 25 ×10⁻⁶ cm/s
same,P app B–A (mean ± SD),Wt‐MDCK monolayers; secretory direction,14.43 ×10⁻⁶ cm/s
same,efflux ratio at 120 min,[2],0.843 ± 0.105
same,effect on BCRP efflux transporter,BCRP,slightly activates the BCRP efflux transporter
same,P app A–B (mean ± SD),Caco2 monolayers; absorptive direction,22.25 ×10⁻⁶ cm/s
same,P app B–A (mean ± SD),Caco2 monolayers; secretory direction,55.35 ×10⁻⁶ cm/s
same,Papp A→B at 120 min,"[3]; absorptive direction, VL 50 μM dosed (VLS formed as metabolite), controls 10 μM, read-out: P app A–B (mean ± SD)",22.3 ×10⁻⁶ cm/s
same,Papp B→A at 120 min,"[3]; secretory direction, VL 50 μM dosed (VLS formed as metabolite), controls 10 μM, read-out: P app B–A (mean ± SD)",55.4 ×10⁻⁶ cm/s
same,efflux ratio at 120 min,"[3]; Papp(B−A)/Papp(A−B), read-out: Efflux ratio (mean ± SD)",2.35 ± 0.341
same,P‐gp induction,P‐gp [4],no significant data of P‐gp induction
